Results reported in ChEMBL document CHEMBL1201862, “PubChem BioAssay data set” (2004).
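Five concentrations, 48 hours, 96-well plates. Here, GI50 denotes the concentration required for 50% inhibition of growth.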 Activity calls are given as the source filed them. Rule as the data show it: active = GI50 up to about 1.1 µM and inactive = higher.

Columns and labels:
Assay in all cases: inhibition of tumour cell growth, NCI panel, 48 h
786-0 = system: 786-0
COLO 205 = system: COLO 205
EKVX = system: EKVX
HCT-116 = system: HCT-116
HL-60 = system: HL-60
KM12 = system: KM12
LOX IMVI = system: LOX IMVI
M14 = system: M14
M19-MEL = system: M19-MEL
NCI-H23 = system: NCI-H23
NCI-H522 = system: NCI-H522
OVCAR-4 = system: OVCAR-4
OVCAR-8 = system: OVCAR-8
SNB-19 = system: SNB-19
U-251 = system: U-251
UO-31 = system: UO-31

For `COc1cc(C)c2c(c1)CN1CN2Cc2cc(OC)cc(C)c21`, the GI50 (786-0) was 74.1 µM (inactive), the GI50 (COLO 205) was 57 µM (inactive) and the GI50 (EKVX) was 32.7 µM (inactive). The GI50 (HCT-116) was 47.9 µM (inactive), the GI50 (HL-60) was 21.4 µM (inactive) and the GI50 (KM12) was 58.2 µM (inactive). The GI50 (LOX IMVI) was 66.2 µM (inactive), the GI50 (M14) was > 100 µM (inactive) and the GI50 (M19-MEL) was 38.9 µM (inactive). The GI50 (NCI-H23) was 45.8 µM (inactive), the GI50 (NCI-H522) was > 100 µM (inactive) and the GI50 (OVCAR-4) was 32.8 µM (inactive). The GI50 (OVCAR-8) was 85.7 µM (inactive), the GI50 (SNB-19) was < 0.01 µM (active) and the GI50 (U-251) was 50.6 µM (inactive). The GI50 (UO-31) was 33.1 µM (inactive).

In the case of `NC(=O)N/N=C/C(=C/Nc1ccccc1)[N+](=O)[O-]`, the GI50 (786-0) was > 100 µM (inactive), the GI50 (COLO 205) was > 100 µM (inactive) and the GI50 (EKVX) was > 100 µM (inactive). The GI50 (HCT-116) was > 100 µM (inactive), the GI50 (HL-60) was > 100 µM (inactive) and the GI50 (LOX IMVI) was > 100 µM (inactive). The GI50 (M14) was > 100 µM (inactive), the GI50 (M19-MEL) was > 100 µM (inactive) and the GI50 (NCI-H23) was > 100 µM (inactive). For the same compound, the GI50 (NCI-H522) was > 100 µM (inactive), the GI50 (OVCAR-4) was > 100 µM (inactive) and the GI50 (OVCAR-8) was > 100 µM (inactive). The GI50 (SNB-19) was > 100 µM (inactive), the GI50 (U-251) was > 100 µM (inactive) and the GI50 (UO-31) was > 100 µM (inactive).

In the case of `COc1cc(C[S+]2CCCC2)c(SC)cc1C[S+]1CCCC1`, the GI50 (786-0) was > 100 µM (inactive), the GI50 (COLO 205) was > 100 µM (inactive) and the GI50 (EKVX) was > 100 µM (inactive). The GI50 (HCT-116) was > 100 µM (inactive), the GI50 (HL-60) was > 100 µM (inactive) and the GI50 (KM12) was > 100 µM (inactive). The GI50 (LOX IMVI) was > 100 µM (inactive), the GI50 (M14) was > 100 µM (inactive) and the GI50 (M19-MEL) was > 100 µM (inactive). The GI50 (NCI-H23) was > 100 µM (inactive), the GI50 (NCI-H522) was > 100 µM (inactive) and the GI50 (OVCAR-4) was > 100 µM (inactive). For the same compound, the GI50 (OVCAR-8) was > 100 µM (inactive), the GI50 (U-251) was > 100 µM (inactive) and the GI50 (UO-31) was > 100 µM (inactive).

`COc1ccc(C23c4ccc(OC)cc4CC2(c2ccc([N+](=O)[O-])cc2)Cc2cc(OC)ccc23)cc1` (centres undefined) was tested, and the GI50 (786-0) was > 100 µM (inactive), the GI50 (COLO 205) was > 36.2 µM (inactive) and the GI50 (EKVX) was > 15.2 µM (inactive). For the same compound, the GI50 (HCT-116) was > 37.2 µM (inactive), the GI50 (HL-60) was > 55 µM (inactive) and the GI50 (KM12) was > 35.8 µM (inactive). For the same compound, the GI50 (LOX IMVI) was > 21.3 µM (inactive), the GI50 (M14) was > 46.2 µM (inactive) and the GI50 (M19-MEL) was > 35.2 µM (inactive). For the same compound, the GI50 (NCI-H23) was > 26.4 µM (inactive), the GI50 (NCI-H522) was > 59.8 µM (inactive) and the GI50 (OVCAR-4) was > 25.1 µM (inactive). The GI50 (OVCAR-8) was > 36.7 µM (inactive), the GI50 (SNB-19) was > 71.4 µM (inactive) and the GI50 (U-251) was > 50.1 µM (inactive). For the same compound, the GI50 (UO-31) was > 24.3 µM (inactive).

For `COC(=O)C1C2CC3C(OC(=O)C31)C2OC(=O)[C@](OC)(c1ccccc1)C(F)(F)F` (some centres undefined), the GI50 (786-0) was > 100 µM (inactive), the GI50 (COLO 205) was > 100 µM (inactive) and the GI50 (EKVX) was > 100 µM (inactive). For the same compound, the GI50 (HCT-116) was > 100 µM (inactive), the GI50 (HL-60) was > 100 µM (inactive) and the GI50 (KM12) was > 100 µM (inactive). The GI50 (LOX IMVI) was > 100 µM (inactive), the GI50 (M14) was > 100 µM (inactive) and the GI50 (M19-MEL) was > 100 µM (inactive). The GI50 (NCI-H23) was > 100 µM (inactive), the GI50 (NCI-H522) was > 100 µM (inactive) and the GI50 (OVCAR-4) was > 100 µM (inactive). For the same compound, the GI50 (OVCAR-8) was > 100 µM (inactive), the GI50 (SNB-19) was > 100 µM (inactive) and the GI50 (U-251) was > 100 µM (inactive). The GI50 (UO-31) was > 100 µM (inactive).

With `CCN(CC)CCCN1CCc2c([nH]c3ccccc23)C1c1cccnc1` (centres undefined) the GI50 (786-0) was > 100 µM (inactive), the GI50 (COLO 205) was > 100 µM (inactive) and the GI50 (EKVX) was > 100 µM (inactive). For the same compound, the GI50 (HCT-116) was > 100 µM (inactive), the GI50 (HL-60) was > 100 µM (inactive) and the GI50 (KM12) was > 100 µM (inactive). The GI50 (LOX IMVI) was > 100 µM (inactive), the GI50 (M14) was 61.2 µM (inactive) and the GI50 (M19-MEL) was > 100 µM (inactive). For the same compound, the GI50 (NCI-H23) was > 100 µM (inactive), the GI50 (NCI-H522) was > 100 µM (inactive) and the GI50 (OVCAR-4) was 96.8 µM (inactive). The GI50 (OVCAR-8) was > 100 µM (inactive), the GI50 (SNB-19) was > 100 µM (inactive) and the GI50 (U-251) was > 100 µM (inactive). For the same compound, the GI50 (UO-31) was 83.9 µM (inactive).

With `CCOC(=O)c1cnc2c(ccc3ncccc32)c1NCCCN(CC)CC` the GI50 (786-0) was 37.9 µM (inactive), the GI50 (COLO 205) was 70.3 µM (inactive) and the GI50 (EKVX) was > 100 µM (inactive). The GI50 (HL-60) was 14.6 µM (inactive), the GI50 (KM12) was 38.3 µM (inactive) and the GI50 (LOX IMVI) was 17.5 µM (inactive). For the same compound, the GI50 (M14) was 19.1 µM (inactive), the GI50 (M19-MEL) was > 100 µM (inactive) and the GI50 (NCI-H23) was 87.9 µM (inactive). For the same compound, the GI50 (NCI-H522) was > 100 µM (inactive), the GI50 (OVCAR-4) was 30 µM (inactive) and the GI50 (SNB-19) was 50.1 µM (inactive). For the same compound, the GI50 (U-251) was 72.4 µM (inactive) and the GI50 (UO-31) was 76.4 µM (inactive).

In the case of `N#Cc1c([N+](=O)[O-])cc(C(F)(F)F)cc1[N+](=O)[O-]`, the GI50 (786-0) was 6.14 µM (inactive), the GI50 (COLO 205) was 4.88 µM (inactive) and the GI50 (EKVX) was 18 µM (inactive). The GI50 (HCT-116) was 7.76 µM (inactive), the GI50 (HL-60) was 1.66 µM (inactive) and the GI50 (KM12) was 5.25 µM (inactive). The GI50 (LOX IMVI) was 2.64 µM (inactive), the GI50 (M14) was 4.85 µM (inactive) and the GI50 (M19-MEL) was 2.54 µM (inactive). For the same compound, the GI50 (NCI-H23) was 7.94 µM (inactive), the GI50 (NCI-H522) was 0.59 µM (active) and the GI50 (OVCAR-4) was 2.11 µM (inactive). For the same compound, the GI50 (OVCAR-8) was 2.09 µM (inactive), the GI50 (SNB-19) was 18.3 µM (inactive) and the GI50 (U-251) was 18.8 µM (inactive). The GI50 (UO-31) was 19.2 µM (inactive).
